Data set [1] has as its system SH-SY5Y neuroblastoma cells. The data set is described as follows: CCK-8 cell cytotoxicity assay, SH-SY5Y. The format is cell-based. The conditions noted are these: Homo sapiens, read-out: IC50 (μM) SH-SY5Y. The method, then: (§1) Cell cytotoxicity was determined by the CCK-8 assay. Four strains of human cells (SH-SY5Y) were seeded in 96-well plates at a density of 3 × 10^3 cells/well under 37 °C and 5% CO2 for 12 h and subsequently treated with the test sample solution (euphorbiasteroid and its metabolites, 10 μL) for 72 h. After treatment, each well with 10 μL CCK-8 reagent was incubated for 1–2 h in the incubator. Afterwards, the optical OD-value was measured at 450 nm through a microplate reader. Three multiple wells were set as parallel experimental groups.
(§2) Euphorbiasteroid and its metabolites were tested for their cytotoxicity on human cell lines SH-SY5Y, LO2, AC-16, and HK-2 by the CCK-8 assay. […] Therefore, considering the high content of euphorbiasteroid in Euphorbiae semen, it was speculated that the metabolites from hydroxylation and hydrolysis might be the potential toxic constituents of Euphorbiae semen.
In general terms: Formazan colour is commonly taken as a measure of viable cells.

Data set [2] relates to LO2 cells. The data set can be described thus: CCK-8 cell cytotoxicity assay, LO2. The conditions noted are these: Homo sapiens, read-out: IC50 (μM) LO2. The class given is cell-based. The method, then:
as §1, §2

Data set [3] has as its system AC-16 cells. The data set is described as follows: CCK-8 cell cytotoxicity assay, AC-16. The class given is cell-based. The conditions noted are these: Homo sapiens, read-out: IC50 (μM) AC-16. The protocol: as §1, §2
Data set [4] relates to HK-2 cells. The data set can be described thus: CCK-8 cell cytotoxicity assay, HK-2. The class given is cell-based. The conditions noted are these: Homo sapiens, read-out: IC50 (μM) HK-2. The protocol: as §1, §2
Data set [5] is described as follows: Metabolite detection in rats (plasma, urine, feces) after oral euphorbiasteroid by UPLC-Q/TOF-MS. The format is in vivo, Sprague-Dawley rats. To be noted: single oral dose 100 mg/kg euphorbiasteroid. The protocol:
For metabolite separation and detection, chromatographic analyses were performed using a Waters Acquity UPLC I-class system (Waters, Milford, MA, USA), equipped with an auto-sampler, a binary solvent delivery system, an online degasser, and a photodiode array detector. An ACQUITY UPLC® HSS T3 column (2.1 × 150 mm, 1.8 μm, Waters) protected with a HSS T3 VanGuard ™ Pre-Column 3/Pk (2.1 × 5.0 mm, 1.8 μm, Waters) was used. The optimized parameters were set as follows: the mobile phase consisted of eluent A (0.1% formic acid in water, v/v) and eluent B (acetonitrile). The flow rate was 0.3 mL/min. The column and auto-sampler temperatures were maintained at 40 °C and 4 °C, respectively. The gradient elution program was optimized as follows: 0–9 min, 30–70% B; 9–13 min, 70–90% B; 13–17 min, 90–100% B; 17–20 min, 100–100% B.
The mass spectrometry detection was performed on the SYNAPT G2-Si HDMS system, equipped with an electrospray ionization (ESI) source (Waters Corp., Manchester, UK). A positive ion mode was conducted in this analysis. Mass spectrometry conditions were finally set as follows: capillary voltage of 3.0 kV, cone voltage of 40 V, source temperature of 120 °C, and de-solvation temperature of 400 °C. Nitrogen was used as the desolvation and cone gas with a flow rate of 800 and 50 L/h, respectively, and the full-scan mass range was set as m/z 50–1500 Da. In the auto mass spectrometry mode, the collision-induced dissociation energies were set at 0 eV for the precursor ion at the low-energy mode, and the collision-induced dissociation energies were set from 2 to 10 eV for the high-energy mode. Real-time data were calibrated using an external reference (LockSpray™) at a concentration of 0.2 ng/mL with an infusion flow rate of 5 μL/min, generating a reference ion for the positive ion mode (m/z 556.2771) during the UPLC-MS analysis. Data were acquired and processed using MassLynx ™ NT 4.1 software (Waters, Milford, MA, USA).
Male Sprague-Dawley rats (200–220 g) were commercially supplied by Shanghai Sippr-BK Laboratory Animal Co., Ltd. (Shanghai, China) and were housed in a humidity- and temperature-controlled room (50 ± 10% and 22–24 °C) with a 12-h light/dark cycle. The experimental rats were allowed to access food and water ad libitum and acclimatized to the conditions mentioned above for a week, then fasted overnight but with free access to water before the experiments. Euphorbiasteroid was dissolved in soybean oil solution (containing 0.5% ethanol) to form a concentration of 10 mg/mL. A single dose of 100 mg/kg euphorbiasteroid was orally administered to rats and the same concentration of soybean oil solution (containing 0.5% ethanol) was administered as a blank control. All animal procedures were performed in accordance with the Guidelines for Care and Use of Laboratory Animals of Naval Medical University and approved by the Animal Ethics Committee of Naval Medical University.
Blood samples (0.5 mL) were collected from six rats through the orbital sinus before administration (blank sample) and 0.25, 0.5, 1, 2, 4, 6, and 12 h after administration. Plasma samples were prepared by centrifugation at 4000 rpm for 10 min. For urine and feces sampling, 12 rats were divided into an administration group and a blank group, and were placed separately in stainless steel metabolic cages. Urine and feces samples were collected in containers surrounded by ice over 0–6, 6–12, and 12–24 h after drug administration. The mixed urine samples were centrifuged at 4000 rpm for 10 min at 4 °C to obtain the supernatants, and fecal samples were left in a cool and dry place until dry. All the biological samples were frozen at −80 °C before analysis.
An aliquot of 200 µL of plasma and urine samples was put in a 1.5 mL tube, respectively. 800 µL of acetonitrile was added and vortexed for 5 min to extract metabolites. Feces samples (1.0 g) were crushed and then ultrasonically extracted with acetonitrile (10 mL) for 30 min. […]

Data set [6] is described as follows: In vitro incubation of euphorbiasteroid with rat liver microsomes, metabolite detection. The conditions noted are these: 37 °C, 1 h, NADPH regenerating system. The class given is in vitro ADME. The method, then: The microsomal incubation approach was based on previous metabolism studies published by Wintermeyer et al. and Franziska et al.. A 200 μL incubation system containing 10 μL of solution A, 2 μL of solution B, 5 μL of rat liver microsomes (20 mg/mL) and 182 μL 0.1 M PBS buffer (pH = 7.4) was constructed. The above solution was heated in a 37 °C water bath, then 1 μL of euphorbiasteroid (dissolved in DMSO solution, 10 mM) was used to start the reaction, and the mixture was then incubated at 37 °C for 1 h. The reactions were terminated by the addition of 200 μL of ice-cold acetonitrile. The mixture was then centrifuged at 13,000 rpm for 10 min, and a 2-μL aliquot of the supernatant was directly injected into the UPLC-Q-TOF-MS system.
(§3) First, the metabolites of euphorbiasteroid in rats (plasma, urine, and feces), RLMs, and C. elegans culture medium were predicted by setting the prototype components and potential biological metabolic reactions in UNIFI 4.1 software. Then, the predicted metabolites in each sample were further compared according to the characteristic mass spectrum behaviors (including parent ions, internal cleavage in the ion source, and characteristic fragment ions of each metabolite) and retention times.

In data set [7] the test system is Cunninghamella elegans bio-110930. The data set can be described thus: Microbial transformation of euphorbiasteroid, metabolite detection. To be noted: C. elegans bio-110930 culture with euphorbiasteroid. The method, then:
The biotransformation process was conducted at two scales: preliminary screening and preparative. Preliminary screening scale biotransformation of euphorbiasteroid was carried out in 250 mL Erlenmeyer flasks containing 100 mL of liquid medium. The flasks were placed on a rotary shaker (160 rpm, 28 °C). A standard two-stage fermentation protocol was employed in all experiments. After 2 days of pre-culture, the substrates of 5 mg (dissolved in 0.5 mL of acetone) were added into each flask. Taking 1 mL samples on days 0, 2, 4, 7, 10, and 14, samples were centrifuged and the degree of transformation was compared to controls on TLC and HPLC, and a 2-μL aliquot of the supernatant was directly injected into the UPLC-Q-TOF-MS system. Culture controls consisted of sterile medium, in which microorganisms were grown under identical conditions without substrate. Substrate controls were composed of sterile medium and the same amount of substrate incubated under the same conditions without microorganisms.
as §3

For data set [8], the system named is human cell lines SH-SY5Y, LO2, AC-16, and HK-2. The data set is described as follows: CCK-8 cytotoxicity, summary over four human cell lines. To be noted: span over SH-SY5Y, LO2, AC-16, HK-2 (and over the named metabolites), read-out: IC50 values against four human cell lines. The format is cell-based. The method, then:
as §1, §2

Read-outs that look alike come from different tables or passages of the source.

Usually IC50 stands for the midpoint of a concentration-inhibition curve.

In the case of `CC(=O)OC1C2C(OC(=O)Cc3ccccc3)C(C)CC2(OC(C)=O)C(=O)C(CO)=CC2C(CCC13CO3)C2(C)C` (centres unmarked) [Compound M3, 20-hydroxyl euphorbiasteroid], the IC50 in data set [1] (72 h) turned out to be 39.6 ± 0.43 µM; in data set [2] (L02, 72 h), 37.4 ± 0.41 µM; in data set [3] (72 h), 17.9 ± 0.19 µM; in data set [4] (HK-2, 72 h) it was 22.7 ± 0.25 µM. In addition, the “Distribution Rat Faeces (metabolite detected)” value (from here on “Distribution Rat Faeces”) in data set [5] is given as “√”. In data set [5], the “Distribution Rat Plasma (metabolite detected)” value (“Distribution Rat Plasma” below) was “√”. In addition, the “Distribution Rat Urine (metabolite detected)” value (shortened to “Distribution Rat Urine”) in data set [5] is “√”. For the same compound, the “Distribution RLMs (metabolite detected)” value in data set [6] is on record as “√”. The “Distribution Fungi (metabolite detected)” value in data set [7] is recorded as “√”.
In the case of `CC1=CC2C(CCC3(CO3)C(O)C3C(O)C(C)CC3(O)C1=O)C2(C)C` (centres unmarked) [Compound M24, epoxylathyrol], the IC50 was 40.7 ± 0.44 µM in data set [1] (CCK-8, 72 h treatment); 38.9 ± 0.42 µM in data set [2] (L02, CCK-8, 72 h treatment); 21.7 ± 0.24 µM in data set [3] (CCK-8, 72 h treatment); 26.5 ± 0.29 µM in data set [4] (HK-2, CCK-8, 72 h treatment); 3.6 to 40.7 µM in data set [8]. For the same compound, in data set [5], the “Distribution Rat Faeces” value is reported as “√”. The “Distribution Rat Plasma” value in data set [5] is “√”. For the same compound, the “Distribution Rat Urine” value in data set [5] is “√”. The “Distribution RLMs (metabolite detected)” value in data set [6] is reported as “√”.
In the case of `CC(=O)OC1C2C(OC(=O)Cc3ccccc3)C(C)CC2(O)C(=O)C(C)=CC2C(CCC13CO3)C2(C)C` (centres unmarked) [Compound M25, 15-deacetyl euphorbiasteroid], the IC50 in data set [1] (72 h) came to 33.3 ± 0.36 µM; in data set [2] (L02, 72 h), 30.1 ± 0.33 µM; in data set [3] (72 h), 3.6 ± 0.04 µM; in data set [4] (HK-2, 72 h) it was 16.1 ± 0.18 µM. Besides, the “Distribution Rat Faeces” value in data set [5] is listed as “√”. In addition, in data set [5], the “Distribution Rat Plasma” value is listed as “√”. Also, in data set [5], the “Distribution Rat Urine” value is on record as “√”. Also, in data set [6], the “Distribution RLMs (metabolite detected)” value is given as “√”.

Source of the values: article PMC9504842, “Comprehensive Metabolic Profiling of Euphorbiasteroid in Rats by Integrating UPLC-Q/TOF-MS and NMR as Well as Microbial Biotransformation” (Metabolites, 2022).
